{"source": "patent US20110183980A1", "about": "“O-BENZYL NICOTINAMIDE ANALOGS AS MGLUR5 POSITIVE ALLOSTERIC MODULATORS” (priority 2009, published 2011)", "data": [{"molecular_target": "T1, rat mGluR5 (Rattus norvegicus, UniProt P31424)", "T1 construct": "expressed in transfected cells; host or cells: human embryonic kidney (HEK) cells", "T1 sequence (P31424 21-1203)": "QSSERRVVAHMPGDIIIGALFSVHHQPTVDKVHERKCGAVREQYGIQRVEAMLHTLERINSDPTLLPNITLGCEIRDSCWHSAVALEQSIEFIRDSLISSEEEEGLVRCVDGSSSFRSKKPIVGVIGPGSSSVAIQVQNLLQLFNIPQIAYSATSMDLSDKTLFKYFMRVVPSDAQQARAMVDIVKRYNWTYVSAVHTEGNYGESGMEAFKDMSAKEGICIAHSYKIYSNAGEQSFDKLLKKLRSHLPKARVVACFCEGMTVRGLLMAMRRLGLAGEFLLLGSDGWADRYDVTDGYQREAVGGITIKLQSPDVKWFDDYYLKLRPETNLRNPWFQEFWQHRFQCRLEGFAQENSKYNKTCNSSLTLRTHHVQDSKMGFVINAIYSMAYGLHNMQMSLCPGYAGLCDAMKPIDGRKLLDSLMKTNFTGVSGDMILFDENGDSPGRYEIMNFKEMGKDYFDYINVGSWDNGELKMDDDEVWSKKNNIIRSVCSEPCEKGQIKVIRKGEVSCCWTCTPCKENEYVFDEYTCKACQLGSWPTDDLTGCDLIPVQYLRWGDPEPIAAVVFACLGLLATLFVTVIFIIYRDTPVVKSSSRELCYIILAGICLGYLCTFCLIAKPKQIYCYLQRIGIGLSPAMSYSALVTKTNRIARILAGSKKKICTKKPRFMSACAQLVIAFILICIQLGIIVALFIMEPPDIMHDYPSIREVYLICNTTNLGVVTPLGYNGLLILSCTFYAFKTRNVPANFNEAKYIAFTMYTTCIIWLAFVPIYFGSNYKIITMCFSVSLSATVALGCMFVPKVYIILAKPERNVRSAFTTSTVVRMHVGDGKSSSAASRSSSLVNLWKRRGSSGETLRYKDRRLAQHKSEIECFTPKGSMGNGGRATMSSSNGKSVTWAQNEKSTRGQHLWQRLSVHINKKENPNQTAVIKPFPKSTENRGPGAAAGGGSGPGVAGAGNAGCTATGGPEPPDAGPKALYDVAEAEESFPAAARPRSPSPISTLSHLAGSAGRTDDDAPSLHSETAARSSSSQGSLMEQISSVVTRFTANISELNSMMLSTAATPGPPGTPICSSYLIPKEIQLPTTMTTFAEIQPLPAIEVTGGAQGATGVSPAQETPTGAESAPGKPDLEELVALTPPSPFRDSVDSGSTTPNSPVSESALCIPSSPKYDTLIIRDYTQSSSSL", "assay": "Potentiation of glutamate response, Ca2+ fluorescence (FDSS) in HEK cells transfected with rat mGluR5", "assay_type": "cell-based", "settings": "Table 1; potentiation of mGluR5 response to glutamate; read-out: EC50", "method": "Human embryonic kidney (HEK) cells transfected with rat mGluR5 were plated in clear bottom assay plates for assay in a Functional Drug Screening System (FDSS). The cells were loaded with a Ca^2+-sensitive fluorescent dye (e.g., Fluo-4), and the plates were washed and placed in the FDSS instrument. After establishment of a fluorescence baseline for twelve seconds, the compounds of the present invention were added to the cells, and the response in cells was measured. Five minutes later, an mGluR5 agonist (e.g., glutamate, 3,5-dihydroxyphenylglycine, or quisqualate) was added to the cells, and the response of the cells was measured. Potentiation of the agonist response of mGluR5 by the compounds in the present invention was observed as an increase in response to non-maximal concentrations of agonist (here, glutamate) in the presence of compound compared to the response to agonist in the absence of compound.\nThe above described assay operated in two modes. In the first mode, a range of concentrations of the present compounds were added to cells, followed by a single fixed concentration of agonist. If a compound acted as a potentiator, an EC50 value for potentiation and a maximum extent of potentiation by the compound at this concentration of agonist was determined by non-linear curve fitting. In the second mode, several fixed concentrations of the present compounds were added to various wells on a plate, followed by a range of concentrations of agonist for each concentration of present compound; the EC50 values for the agonist at each concentration of compound were determined by non-linear curve fitting. A decrease in the EC50 value of the agonist with increasing concentrations of the present compounds (a leftward shift of the agonist concentration-response curve) is an indication of the degree of mGluR5 potentiation at a given concentration of the present compound. An increase in the EC50 value of the agonist with increasing concentrations of the present compounds (a rightward shift of the agonist concentration-response curve) is an indication of the degree of mGluR5 antagonism at a given concentration of the present compound. The second mode also indicates whether the present compounds also affect the maximum response to mGluR5 to agonists.", "units": {"EC50": "nM"}, "values": [{"smiles": "Cc1csc(NC(=O)c2ccc(OCc3ccccc3)nc2)n1", "note": "[Example 1.2a.20]", "EC50": 1600}, {"smiles": "O=C(NCC1CCOCC1)c1ccc(OCc2ccccc2)nc1", "note": "[Example 1.2a.21]", "EC50": 3900}, {"smiles": "C[C@@H](NC(=O)c1ccc(OCc2ccccc2)nc1)C1CC1", "note": "[Example 1.2a.22]", "EC50": 170}, {"smiles": "O=C(NC1CCOCC1)c1ccc(OCc2ccccc2)nc1", "note": "[Example 1.2a.23]", "EC50": 3900}, {"smiles": "O=C(NC1CCCCC1)c1ccc(OCc2ccccc2)nc1", "note": "[Example 1.2a.24]", "EC50": 140}, {"smiles": "Cc1nc(OCc2ccccc2)ccc1C(=O)NCC1CC1", "note": "[Example 1.2b.2]", "EC50": 1600}, {"smiles": "Cc1nc(OCc2ccccc2)ccc1C(=O)NCCC(C)(C)C", "note": "[Example 1.2b.3]", "EC50": 400}, {"smiles": "CC(C)(C)CCNC(=O)c1ccc(OCc2cccc(F)c2)nc1", "note": "[Example 1.2c.3]", "EC50": 85}, {"smiles": "CC(C)NC(=O)c1ccc(OCc2cccc(F)c2)nc1", "note": "[Example 1.2c.4]", "EC50": 1000}, {"smiles": "CC(C)(C)NC(=O)c1ccc(OCc2cccc(F)c2)nc1", "note": "[Example 1.2c.5]", "EC50": 400}, {"smiles": "O=C(NC1CCCCC1)c1ccc(OCc2cccc(F)c2)nc1", "note": "[Example 1.2c.6]", "EC50": 40}, {"smiles": "O=C(c1ccc(OCc2cccc(F)c2)nc1)N1CCOCC1", "note": "[Example 1.2c.7]", "EC50": 1700}, {"smiles": "O=C(NCc1ccccn1)c1ccc(OCc2cccc(F)c2)nc1", "note": "[Example 1.2c.8]", "EC50": 2700}, {"smiles": "O=C(Nc1ccccc1F)c1ccc(OCc2cccc(F)c2)nc1", "note": "[Example 1.2c.9]", "EC50": 210}, {"smiles": "O=C(Nc1cccc(F)c1)c1ccc(OCc2cccc(F)c2)nc1", "note": "[Example 1.2c.10]", "EC50": 460}, {"smiles": "O=C(Nc1ccc(F)cc1)c1ccc(OCc2cccc(F)c2)nc1", "note": "[Example 1.2c.11]", "EC50": 260}, {"smiles": "O=C(Nc1ccc(Cl)cc1F)c1ccc(OCc2cccc(F)c2)nc1", "note": "[Example 1.2c.12]", "EC50": 570}, {"smiles": "O=C(Nc1ccc(Cl)cn1)c1ccc(OCc2cccc(F)c2)nc1", "note": "[Example 1.2c.13]", "EC50": 346}, {"smiles": "O=C(NCC1CC1)c1ccc(OCc2cccc(F)c2)nc1", "note": "[Example 1.2c.14]", "EC50": 920}, {"smiles": "C[C@@H](NC(=O)c1ccc(OCc2cccc(F)c2)nc1)C1CC1", "note": "[Example 1.2c.15]", "EC50": 94}, {"smiles": "O=C(NCC1CCCCC1)c1ccc(OCc2cccc(F)c2)nc1", "note": "[Example 1.2c.16]", "EC50": 230}, {"smiles": "O=C(NCC1CCOCC1)c1ccc(OCc2cccc(F)c2)nc1", "note": "[Example 1.2c.17]", "EC50": 1100}, {"smiles": "C[C@@H](NC(=O)c1ccc(OCc2cccc(F)c2)nc1)C1CCCCC1", "note": "[Example 1.2c.18]", "EC50": 190}, {"smiles": "O=C(NC1CCC1)c1ccc(OCc2cccc(F)c2)nc1", "note": "[Example 1.2c.19]", "EC50": 120}, {"smiles": "O=C(NC1CCOCC1)c1ccc(OCc2cccc(F)c2)nc1", "note": "[Example 1.2c.20]", "EC50": 1600}, {"smiles": "O=C(Nc1ccc(F)cc1F)c1ccc(OCc2cccc(F)c2)nc1", "note": "[Example 1.2c.21]", "EC50": 76}, {"smiles": "O=C(Nc1ccccn1)c1ccc(OCc2ccc(F)cc2)nc1", "note": "[Example 1.2d.1]", "EC50": 1300}, {"smiles": "O=C(Nc1ccc(F)cc1F)c1ccc(OCc2ccc(F)cc2)nc1", "note": "[Example 1.2d.2]", "EC50": 210}, {"smiles": "O=C(Nc1ccc(F)cn1)c1ccc(OCc2ccc(F)cc2)nc1", "note": "[Example 1.2d.3]", "EC50": 510}, {"smiles": "CC(C)(C)CCNC(=O)c1ccc(OCc2ccc(F)cc2)nc1", "note": "[Example 1.2d.4]", "EC50": 690}, {"smiles": "CC(C)(C)CCNC(=O)c1ccc(OCc2cc(F)cc(F)c2)nc1", "note": "[Example 1.2e.1]", "EC50": 1100}, {"smiles": "O=C(Nc1ccccn1)c1ccc(OCc2ccccc2F)nc1", "note": "[Example 1.2f.1]", "EC50": 300}, {"smiles": "O=C(NC1CCC1)c1ccc(OCc2ccccc2F)nc1", "note": "[Example 1.2f.2]", "EC50": 270}, {"smiles": "O=C(NC1CCCCC1)c1ccc(OCc2ccccc2F)nc1", "note": "[Example 1.2f.3]", "EC50": 110}, {"smiles": "Cc1cccc(COc2ccc(C(=O)Nc3ccccn3)cn2)c1", "note": "[Example 1.2g.1]", "EC50": 240}, {"smiles": "Cc1cccc(COc2ccc(C(=O)NC3CCC3)cn2)c1", "note": "[Example 1.2g.2]", "EC50": 120}, {"smiles": "Cc1cccc(COc2ccc(C(=O)NC3CCCCC3)cn2)c1", "note": "[Example 1.2g.3]", "EC50": 100}, {"smiles": "O=C(Nc1ccccn1)c1ccc(OCc2cccnc2)nc1", "note": "[Example 1.2h.1]", "EC50": 2900}, {"smiles": "O=C(Nc1ccccn1)c1ccc(OCc2ccncc2)nc1", "note": "[Example 1.2i.2]", "EC50": "≥ 10000"}, {"smiles": "O=C(NC1CCCCC1)c1ccc(OCc2ccncc2)nc1", "note": "[Example 1.2i.3]", "EC50": 1200}, {"smiles": "O=C(Nc1ccc(F)cc1F)c1ccc(OCc2ccncc2)nc1", "note": "[Example 1.2i.4]", "EC50": 810}, {"smiles": "C[C@@H](NC(=O)c1ccc(OCc2ccncc2)nc1)C1CC1", "note": "[Example 1.2i.5]", "EC50": 4800}, {"smiles": "CCCCOc1ccc(C(=O)NC2CCCCC2)cn1", "note": "[Example 1.2j.2]", "EC50": 2400}, {"smiles": "CCCCOc1ccc(C(=O)NC(C)(C)C)cn1", "note": "[Example 1.2j.3]", "EC50": "≥ 10000"}, {"smiles": "CCCCOc1ccc(C(=O)Nc2ccc(F)cn2)cn1", "note": "[Example 1.2j.4]", "EC50": 1500}, {"smiles": "CCCCOc1ccc(C(=O)Nc2ccccc2)cn1", "note": "[Example 1.2j.5]", "EC50": 650}, {"smiles": "CCCCOc1ccc(C(=O)N[C@H](C)C2CCCCC2)cn1", "note": "[Example 1.2j.6]", "EC50": 1500}, {"smiles": "CCCCOc1ccc(C(=O)NC2CCCCCC2)cn1", "note": "[Example 1.2j.7]", "EC50": 2200}, {"smiles": "Cc1nc(OCc2cccc(F)c2)ccc1C(=O)N[C@H](C)C1CCCCC1", "note": "[Example 1.2m.2]", "EC50": 870}, {"smiles": "Cc1nc(OCc2cccc(F)c2)ccc1C(=O)NC1CCCCC1", "note": "[Example 1.2m.3]", "EC50": 610}, {"smiles": "Cc1nc(OCc2ccncc2)ccc1C(=O)NCCC(C)(C)C", "note": "[Example 1.2n.1]", "EC50": 3400}, {"smiles": "Cc1nc(OCc2ccncc2)ccc1C(=O)N[C@H](C)C1CCCCC1", "note": "[Example 1.2n.2]", "EC50": 800}, {"smiles": "O=C(NC1CCCCC1)c1ccc(OCC2CCCC2)nc1", "note": "[Example 2.3a.4]", "EC50": 710}, {"smiles": "O=C(NC1CCCCC1)c1ccc(OCc2ccc(F)cc2)nc1", "note": "[Example 2.3a.6]", "EC50": 750}, {"smiles": "N#Cc1cccc(COc2ccc(C(=O)NC3CCCCC3)cn2)c1", "note": "[Example 2.3a.7]", "EC50": 95}, {"smiles": "O=C(NC1CCCCC1)c1ccc(OCc2ccsc2)nc1", "note": "[Example 2.3a.8]", "EC50": 120}, {"smiles": "O=C(NC1CCCCC1)c1ccc(OCc2nccs2)nc1", "note": "[Example 2.3a.9]", "EC50": 3100}, {"smiles": "Cc1ccc(COc2ccc(C(=O)NC3CCC3)cn2)cc1", "note": "[Example 2.3b.1]", "EC50": 1800}, {"smiles": "O=C(NC1CCC1)c1ccc(OCc2ccc(F)cc2)nc1", "note": "[Example 2.3b.2]", "EC50": 1200}, {"smiles": "CC(C)(C)CCNC(=O)c1ccc(OCc2cccnc2)nc1", "note": "[Example 2.3c.1]", "EC50": 2900}, {"smiles": "CC(C)(C)CCNC(=O)c1ccc(OCc2ccncc2)nc1", "note": "[Example 2.3c.2]", "EC50": 420}]}]}
